Experiments:
PC-12 [1] = test: Neuroprotection against Amyloid beta (25 to 35)-induced toxicity in rat PC-12 cells assessed as increase in cell viability at 50 uM for 24 hrs by MTT assay relative to control; type: functional
PC-12 [2] = test: Neuroprotection against Amyloid beta (25 to 35)-induced toxicity in rat PC-12 cells assessed as increase in cell viability at 10 uM for 24 hrs by MTT assay relative to control; type: functional
PC-12 [3] = test: Neuroprotection against Amyloid beta (25 to 35)-induced toxicity in rat PC-12 cells assessed as increase in cell viability at 25 uM for 24 hrs by MTT assay relative to control; type: functional
K562 = test: Anti-cancer activity against human K562 cells; type: functional, cell-based
Bel-7402 = test: Anti-cancer activity against human Bel-7402 cells; type: functional, cell-based
PC-12 [4] = test: Neurotrophic activity in rat PC-12 cells assessed as induction of NGF-mediated neurite outgrowth at 10 uM measured after 72 hrs relative to control; type: functional
[5] = Antioxidant activity assessed as DPPH radical scavenging activity incubated for 30 mins by spectrophotometric analysis; type: functional
HL-60 = test: Anti-cancer activity against human HL-60 cells; type: functional, cell-based
[6] = molecular target: Aldo-keto reductase family 1 member B1 (Homo sapiens, UniProt P15121); test: Inhibition of aldose reductase (unknown origin) using DL-glyceraldehyde as substrate
[7] = molecular target: Nitric oxide synthase, inducible (Homo sapiens, UniProt P35228); test: Inhibition of iNOS (unknown origin)
Chain of Nitric oxide synthase, inducible (P35228 whole entry): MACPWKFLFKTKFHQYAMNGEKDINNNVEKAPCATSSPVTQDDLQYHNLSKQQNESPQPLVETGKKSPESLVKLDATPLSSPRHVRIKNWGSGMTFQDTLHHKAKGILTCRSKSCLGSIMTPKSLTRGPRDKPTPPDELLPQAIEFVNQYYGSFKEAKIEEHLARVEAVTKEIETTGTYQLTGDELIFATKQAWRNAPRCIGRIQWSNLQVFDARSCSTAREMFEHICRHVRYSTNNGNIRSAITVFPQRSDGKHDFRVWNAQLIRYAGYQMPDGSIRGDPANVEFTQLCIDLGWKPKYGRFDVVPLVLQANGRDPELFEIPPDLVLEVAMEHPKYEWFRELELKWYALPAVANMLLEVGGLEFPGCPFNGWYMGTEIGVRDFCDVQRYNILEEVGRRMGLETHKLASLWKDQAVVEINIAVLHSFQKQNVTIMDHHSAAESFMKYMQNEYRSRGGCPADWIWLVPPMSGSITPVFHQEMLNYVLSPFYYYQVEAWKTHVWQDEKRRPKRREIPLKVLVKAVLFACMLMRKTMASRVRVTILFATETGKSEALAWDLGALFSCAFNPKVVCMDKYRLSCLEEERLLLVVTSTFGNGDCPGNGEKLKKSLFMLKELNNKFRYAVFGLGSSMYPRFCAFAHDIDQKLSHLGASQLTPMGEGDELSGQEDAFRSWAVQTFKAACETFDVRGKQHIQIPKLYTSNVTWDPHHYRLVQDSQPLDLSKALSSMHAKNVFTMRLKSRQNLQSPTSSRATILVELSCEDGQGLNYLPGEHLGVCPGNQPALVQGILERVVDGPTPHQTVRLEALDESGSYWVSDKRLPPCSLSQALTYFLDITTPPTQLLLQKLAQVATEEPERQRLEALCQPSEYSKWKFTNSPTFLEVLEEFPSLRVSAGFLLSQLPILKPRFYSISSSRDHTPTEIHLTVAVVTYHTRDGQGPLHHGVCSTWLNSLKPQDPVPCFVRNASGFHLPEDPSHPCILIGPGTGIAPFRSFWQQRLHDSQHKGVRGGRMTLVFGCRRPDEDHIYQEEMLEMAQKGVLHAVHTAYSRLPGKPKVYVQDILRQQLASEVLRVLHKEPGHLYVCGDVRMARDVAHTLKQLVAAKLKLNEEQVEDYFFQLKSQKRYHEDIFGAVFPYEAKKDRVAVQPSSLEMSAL

[8] = Permeability of the compound by PAMPA-BBB assay; type: ADME; conditions: read-out: permeability
NCI-H23 = test: Anti-cancer activity against human NCI-H23 cells; type: functional, cell-based
NCI-H460 = test: Cytotoxicity against human NCI-H460 cells assessed as cell viability by MTT assay; type: functional, cell-based
HepG2 = test: Cytotoxicity against human HepG2 cells assessed as cell viability incubated for 72 hrs by MTT assay; type: functional, cell-based; conditions: HepG2, 72 h
MDA-MB-231 = test: Cytotoxicity against human MDA-MB-231 cells assessed as cell viability incubated for 72 hrs by MTT assay; type: functional, cell-based; conditions: MDA-MB-231, 72 h
HT-29 = test: Cytotoxicity against human HT-29 cells assessed as cell viability incubated for 72 hrs by MTT assay; type: functional, cell-based; conditions: HT-29, 72 h
RAW264.7 = test: Antiinflammatory activity in mouse RAW264.7 cells assessed as inhibition of LPS-induced NO production at 25 uM measured after 24 hrs; type: functional
THP-1 = test: Anti-cancer activity against human THP-1 cells; type: functional, cell-based
[9] = molecular target: Tyrosine-protein phosphatase non-receptor type 1 (Homo sapiens, UniProt P18031); test: Inhibition of PTP1B (unknown origin)
Chain of Tyrosine-protein phosphatase non-receptor type 1 (P18031 whole entry): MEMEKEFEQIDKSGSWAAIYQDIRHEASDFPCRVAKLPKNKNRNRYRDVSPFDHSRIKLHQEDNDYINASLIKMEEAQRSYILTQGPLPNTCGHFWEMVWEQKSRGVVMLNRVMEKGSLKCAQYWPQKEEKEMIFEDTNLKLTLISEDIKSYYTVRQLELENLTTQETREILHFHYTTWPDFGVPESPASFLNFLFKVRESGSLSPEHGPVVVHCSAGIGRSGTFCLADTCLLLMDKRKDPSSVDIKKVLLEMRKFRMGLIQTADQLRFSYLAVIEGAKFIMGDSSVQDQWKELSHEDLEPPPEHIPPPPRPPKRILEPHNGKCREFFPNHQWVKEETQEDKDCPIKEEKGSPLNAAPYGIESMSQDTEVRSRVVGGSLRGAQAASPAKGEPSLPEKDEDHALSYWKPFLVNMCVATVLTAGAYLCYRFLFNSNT

SGC-7901 = test: Anti-cancer activity against human SGC-7901 cells; type: functional, cell-based
MCF7 = test: Cytotoxicity against human MCF7 cells assessed as cell viability incubated for 48 hrs by MTS assay; type: functional, cell-based; conditions: MCF7, 48 h

**Q.** Which Activity (PC-12 [1]) does the source give for `CCCCC(=O)Oc1c(OC)cc(CCc2ccc(OC)c(OC)c2)cc1OC` here?
**A.** 48.63%

**Q.** And the Activity (PC-12 [2])?
**A.** 49.73%

**Q.** And the Activity (PC-12 [3])?
**A.** 41.9%

**Q.** Which Activity (PC-12 [1]) does the source give for `COc1ccc(CCc2cc(OC)c(OC(=O)C(C)C)c(OC)c2)cc1OC` here?
**A.** 45.91%

**Q.** What about the Activity (PC-12 [2]) of the same compound?
**A.** 49.34%

**Q.** And the Activity (PC-12 [3])?
**A.** 47.33%

**Q.** Which results are given for `COc1cc2c(c(OC)c1O)-c1c(OC)cc(CCc3cccc(O)c3)cc1O[C@H]2[C@H](O)CO`?
**A.** IC50 (K562): 10.3 µM; IC50 (Bel-7402): 10 µM

**Q.** With `COc1cc(CCc2cc(OC)c3c(c2)O[C@@H](c2cc(OC)c(O)c(OC)c2)[C@H](CO)O3)ccc1O` as the compound, how does the Activity (PC-12 [4]) read?
**A.** 7.86%

**Q.** For `O=C1O[C@H]([C@@H](O)CO)C(O)=C1O` [ASCORBIC ACID], which IC50 [5] is on record?
**A.** 23.2 µM

**Q.** Which Activity (PC-12 [1]) does the source give for `COc1ccc(CCc2cc(OC)c(OC(=O)CCC(C)C)c(OC)c2)cc1OC` here?
**A.** 49.57%

**Q.** And the Activity (PC-12 [2])?
**A.** 49.83%

**Q.** What about the Activity (PC-12 [3]) of the same compound?
**A.** 50.4%

**Q.** With `COc1ccc(CCc2cc(O)c(OC)c3c2Oc2c(cc(O)c(OC)c2O)C3Cc2ccc(OC)cc2)cc1` (centres undefined) as the compound, how does the IC50 (HL-60) read?
**A.** 6.4 µM

**Q.** Which IC50 [6] does the source give for `COc1cc(CCc2ccc(O)c(O)c2)cc(OC)c1O` here?
**A.** 17.8 µM

**Q.** Which Activity (PC-12 [1]) does the source give for `COc1ccc(CCc2cc(OC)c(OC(=O)c3ccncc3)c(OC)c2)cc1OC` here?
**A.** 46.56%

**Q.** What about the Activity (PC-12 [2]) of the same compound?
**A.** 53.53%

**Q.** And the Activity (PC-12 [3])?
**A.** 50.71%

**Q.** What does the source list for `COc1cccc(CCc2ccc(O)c(O)c2)c1O`?
**A.** IC50 [6]: 126 µM; IC50 [7]: 434 µM

**Q.** Which IC50 [5] does the source give for `COc1ccc(CC2C3=C(Cc4c2cc(O)c(O)c4OC)C(=O)c2cc(O)c4cc(O)ccc4c2C3=O)cc1` (centres undefined) here?
**A.** 19.8 µM

**Q.** Which Activity (PC-12 [1]) does the source give for `CCCCC(CC)Oc1c(OC)cc(CCc2ccc(OC)c(OC)c2)cc1OC` (centres undefined) here?
**A.** 58.88%

**Q.** And the Activity (PC-12 [2])?
**A.** 51.03%

**Q.** And the Activity (PC-12 [3])?
**A.** 54.78%

**Q.** Which results are given for `COc1ccc(CCc2cc(OC)c(O)c(OC)c2)cc1OC`?
**A.** Papp [8]: 4.1 ×10⁻⁶ cm/s; IC50 [5]: 14 µM; IC50 (NCI-H23): 145 µM; Activity (PC-12 [1]): 58.89%; Activity (PC-12 [2]): 52.72%; IC50 (NCI-H460): 127 µM; Activity (PC-12 [3]): 55.02%

**Q.** Which Activity (PC-12 [1]) does the source give for `COc1ccc(CCc2cc(OC)c(OC(=O)c3ccccn3)c(OC)c2)cc1OC` here?
**A.** 54.6%

**Q.** And the Activity (PC-12 [2])?
**A.** 52.97%

**Q.** And the Activity (PC-12 [3])?
**A.** 50.1%

**Q.** Which IC50 [6] does the source give for `CC(C)c1ccc(CCc2cc(O)cc(O)c2)cc1` here?
**A.** 513 µM

**Q.** Which IC50 (HepG2) does the source give for `COc1ccc(CC2c3cc(O)c(O)c(OC)c3Oc3cc(O)c4c(c32)CCc2cc(O)ccc2-4)cc1` (centres undefined) here?
**A.** 51.3 µM

**Q.** What about the IC50 (MDA-MB-231) of the same compound?
**A.** 25.2 µM

**Q.** And the IC50 (HT-29)?
**A.** 30.4 µM

**Q.** With `COc1cc(C[C@H](O)c2cc(O)cc(O)c2)ccc1O` as the compound, how does the inhibition at 25 µM (RAW264.7) read?
**A.** 15%

**Q.** What does the source list for `COc1cc(CCc2cc(O)cc(O)c2)ccc1O` [TRISTIN]?
**A.** IC50 (THP-1): 13.5 µM; IC50 [9]: 21.2 µM; IC50 (HL-60): 29.1 µM; inhibition at 25 µM (RAW264.7): 27.2%

**Q.** For `COc1cccc(CCc2cc(O)c(O)c(OC)c2)c1`, which IC50 [5] is on record?
**A.** 40.3 µM

**Q.** For `COc1cc([C@@H]2Oc3cc(CCc4ccc(O)cc4)cc(OC)c3O[C@H]2CO)cc(OC)c1O`, which Activity (PC-12 [4]) is on record?
**A.** 9.46%

**Q.** Which results are given for `COc1cc(O)cc(CCc2ccc(O)c(O)c2)c1`?
**A.** IC50 [6]: 176 µM; IC50 [7]: 680 µM

**Q.** For `COc1cc(CCc2cccc(O)c2)cc(OC)c1O`, which IC50 (HL-60) is on record?
**A.** 4.48 µM

**Q.** What about the IC50 (SGC-7901) of the same compound?
**A.** 12.8 µM

**Q.** With `CCCC(CCC)C(=O)Oc1c(OC)cc(CCc2ccc(OC)c(OC)c2)cc1OC` as the compound, how does the Activity (PC-12 [1]) read?
**A.** 60.02%

**Q.** And the Activity (PC-12 [2])?
**A.** 50.11%

**Q.** And the Activity (PC-12 [3])?
**A.** 55.21%

**Q.** Which Activity (PC-12 [1]) does the source give for `CCCCOc1c(OC)cc(CCc2ccc(OC)c(OC)c2)cc1OC` here?
**A.** 53.44%

**Q.** And the Activity (PC-12 [2])?
**A.** 51.79%

**Q.** And the Activity (PC-12 [3])?
**A.** 52.03%

**Q.** Which results are given for `CCC(=O)Oc1c(OC)cc(CCc2ccc(OC)c(OC)c2)cc1OC`?
**A.** Activity (PC-12 [1]): 44.4%; Activity (PC-12 [2]): 45.31%; Activity (PC-12 [3]): 44.21%

**Q.** Which IC50 (MCF7) does the source give for `COc1ccc(CCc2cc3c(c(OC)c2)C[C@@H](CO)[C@H](c2ccc(O)c(OC)c2)C3)cc1` here?
**A.** 38.5 µM

**Q.** For `COc1cc(CCc2cccc(O)c2)cc(O)c1OC`, which IC50 (K562) is on record?
**A.** 15.7 µM

**Q.** What about the IC50 (Bel-7402) of the same compound?
**A.** 11.7 µM

**Q.** What about the IC50 (SGC-7901) of the same compound?
**A.** 7.8 µM

**Q.** Which IC50 [5] does the source give for `COc1ccc(CCc2cc(OC)c3c(c2)O[C@H](c2cc(O)c(O)c(OC)c2)[C@@H](c2ccc(OC)cc2)O3)cc1` here?
**A.** 21.3 µM

**Q.** And the IC50 (HepG2)?
**A.** 89.7 µM

**Q.** And the IC50 (MDA-MB-231)?
**A.** 42.5 µM

**Q.** What about the IC50 (HT-29) of the same compound?
**A.** 52 µM

**Q.** With `CCOc1c(OC)cc(CCc2ccc(OC)c(OC)c2)cc1OC` as the compound, how does the Activity (PC-12 [1]) read?
**A.** 46.15%

**Q.** And the Activity (PC-12 [2])?
**A.** 53.84%

**Q.** And the Activity (PC-12 [3])?
**A.** 50.92%

**Q.** For `Oc1cc(O)cc(CCc2ccc(F)cc2)c1`, which IC50 [6] is on record?
**A.** 566 µM

**Q.** With `COc1cc(CC(O)c2cc(OC)c(O)c(OC)c2)ccc1O` (centres undefined) [NOBILIN D] as the compound, how does the IC50 [5] read?
**A.** 19.9 µM

**Q.** Which Activity (PC-12 [1]) does the source give for `CCCOc1c(OC)cc(CCc2ccc(OC)c(OC)c2)cc1OC` here?
**A.** 48.81%

**Q.** And the Activity (PC-12 [2])?
**A.** 49.21%

**Q.** What about the Activity (PC-12 [3]) of the same compound?
**A.** 49.11%
